Patent US5624923A, “Tricyclic diazepine vasopressin antagonists and oxytocin antagonists” (priority 1995, dated 1997)

What was measured:
Rat Hepatic V1 Receptors = molecular target: T1, Rat Hepatic V1 Receptors (Rattus norvegicus, UniProt P30560); test: Binding Assay to Rat Hepatic V1 Receptors; settings: rat liver membranes; read-out: V1 IC50
T1 construct: Rat liver plasma membranes expressing the vasopressin V1 receptor subtypes; from tissue; host or cells: rat liver plasma membranes
Procedure: Binding Assay to Rat Hepatic V1 Receptors
Rat liver plasma membranes expressing the vasopressin V1 receptor subtypes are isolated by sucrose density gradient according to the method described by Lesko et al., (1973). These membranes are quickly suspended in 50.0 mM Tris.HCl buffer, pH 7.4, containing 0.2% bovine serum albumin (BSA) and 0.1 mM phenylmethylsulfonylfluoride (PMSF) and kept frozen at -70° C. until used in subsequent binding experiments. For binding experiments, the following is added to the wells of a ninety-six well format microtiter plate: 100 μl of 100.0 mM Tris.HCl buffer containing 10.0 mM MgCl2, 0.2% heat inactivated BSA and a mixture of protease inhibitors: leupeptin, 1.0 mg %; aprotinin, 1.0 mg %; 1,10-phenanthroiine,2.0 mg %; trypsin inhibitor, 10.0 mg % and 0.1 mM PMSF, 20.0 μl of [phenylalanyl-3,4,5, -^3 H] vasopressin (S.A. 45.1 Ci/mmole) at 0.8 nM, and the reaction initiated by the addition of 80 μl of tissue membranes containing 20 μg of tissue protein. The plates are kept undisturbed on the bench top at room temperature for 120 min. to reach equilibrium. Non-specific samples are assayed in the presence of 0.1 μM of the unlabeled antagonist phenylalanylvasopressin, added in 20.0 μl volume.
(§1) For test compounds, these are solubilized in 50% dimethylsulfoxide (DMSO) and added in 20.0 μl volume to a final incubation volume of 200 μl . Upon completion of binding, the content of each well is filtered off, using a Brandel® cell Harvester (Gaithersburg, Md.). The radioactivity trapped on the filter disk by the ligand-receptor complex is assessed by liquid scintillation counting in a Packard LS Counter, with an efficiency of 65% for tritium. The data are analyzed for IC50 values by the LUNDON-2 program for competition (LUNDON SOFTWARE, Ohio).

[1] = molecular target: T2, Rat Kidney Medullary V2 Receptors (Rattus norvegicus, UniProt Q00788); test: Binding Assay to Rat Kidney Medullary V2 Receptors; settings: rat kidney medulla membranes; read-out: V2 IC50
T2 construct: Medullary tissues from rat kidneys are dissected out; from tissue; host or cells: rat kidney medulla membranes
Procedure: Binding Assay to Rat Kidney Medullary V2 Receptors
Medullary tissues from rat kidneys are dissected out, cut into small pieces and soaked in a […] sodium chloride solution containing 1.0 mM EDTA with many changes of the liquid phase, until the solution is clear of blood. The tissue is homogenized in a 0.25M sucrose solution containing 1.0 mM EDTA and 0.1 mM PMSF using a Potter-Elvehjem homogenizer with a teflon pestle. The homogenate is filtered through several layers (4 layers) of cheese cloth. The filtrate is rehomogenized using a dounce homogenizer, with a tight fitting pestle. The final homogenate is centrifuged at 1500× g for 15 min. The nuclear pellet is discarded and the supernatant fluid recentrifuged at 40,000× g for 30 min. The resulting pellet formed contains a dark inner part with the exterior., slightly pink. The pink outer part is suspended in a small amount of 50.0 mM Tris. HCl buffer, pH 7.4. The protein content is determined by the Lowry's method (Lowry et al., J. Biol. Chem., 1953). The membrane suspension is stored at -70° C. in 50.0 mM Tris HCl, containing 0.2% inactivated BSA and 0.1 mM PMSF in aliquots of 1.0 ml containing 10.0 mg protein per ml of suspension until use in subsequent binding experiments.
as §1, with “The plates are left undisturbed on the bench top for 120 min to reach equilibrium. Non-specific binding is assessed in the presence of 1.0 μM of unlabeled ligand, added in 20 μl volume. For” for “For”, “μl.” for “μl .”

Vasopressin V1 = Vasopressin V1 Antagonist Activity in Conscious Rats (vasopressin vasopressor response); type: in vivo, rat; parameters: Average Change: unit not given here; settings: 10 mg/kg i.v.; for % Inhibition / Average Change: SHR
In short: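 Conscious rats are restrained supine, and under local 2% procaine a PE 10/20 cannula is passed through the ventral caudal tail artery into the lower abdominal aorta. The caudal vein is cannulated for intravenous dosing. Blood pressure is recorded with a Statham P23Db transducer, and vasopressin injections are repeated after compound dosing. Percent antagonism is calculated against the pre-drug vasopressor response taken as 100%.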

T1 sequence (P30560 whole entry): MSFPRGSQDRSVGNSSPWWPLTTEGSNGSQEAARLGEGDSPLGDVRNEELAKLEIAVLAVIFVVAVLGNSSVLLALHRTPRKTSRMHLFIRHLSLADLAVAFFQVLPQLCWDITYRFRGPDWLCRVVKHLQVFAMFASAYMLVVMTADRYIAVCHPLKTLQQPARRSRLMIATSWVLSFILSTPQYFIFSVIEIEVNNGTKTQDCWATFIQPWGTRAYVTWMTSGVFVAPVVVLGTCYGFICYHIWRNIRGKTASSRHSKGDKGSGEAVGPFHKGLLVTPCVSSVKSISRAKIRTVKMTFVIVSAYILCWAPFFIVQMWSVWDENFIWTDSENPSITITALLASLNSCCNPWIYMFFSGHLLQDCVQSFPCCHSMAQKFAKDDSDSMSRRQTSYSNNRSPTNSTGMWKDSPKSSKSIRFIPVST
T2 sequence (Q00788 whole entry): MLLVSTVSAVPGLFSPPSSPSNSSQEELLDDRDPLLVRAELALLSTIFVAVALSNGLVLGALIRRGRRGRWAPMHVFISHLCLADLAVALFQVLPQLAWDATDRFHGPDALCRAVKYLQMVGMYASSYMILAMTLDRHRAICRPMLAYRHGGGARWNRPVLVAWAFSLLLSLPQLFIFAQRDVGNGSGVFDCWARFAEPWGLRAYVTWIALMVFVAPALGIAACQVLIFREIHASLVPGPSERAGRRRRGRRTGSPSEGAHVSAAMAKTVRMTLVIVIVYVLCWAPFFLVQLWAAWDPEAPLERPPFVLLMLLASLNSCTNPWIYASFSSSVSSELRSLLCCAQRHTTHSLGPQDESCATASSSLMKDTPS

IC50 (Rat Hepatic V1 Receptors) [µM]	IC50 [1] [µM]	SMILES	% Inhibition (Vasopressin V1; VAS 0.01 i.u./kg, 30 min) [%]	Average Change (Vasopressin V1; VAS 0.01 i.u./kg, 30 min)	% Inhibition (Vasopressin V1; VAS 0.01 i.u./kg, 60 min) [%]	Average Change (Vasopressin V1; VAS 0.01 i.u./kg, 60 min)	% Inhibition (Vasopressin V1; VAS 0.01 i.u./kg, 90 min) [%]	Average Change (Vasopressin V1; VAS 0.01 i.u./kg, 90 min)	% Inhibition (Vasopressin V1; VAS 0.01 i.u./kg, 120 min) [%]	Average Change (Vasopressin V1; VAS 0.01 i.u./kg, 120 min)	% Inhibition (Vasopressin V1; VAS 0.01 i.u./kg, 180 min) [%]	Average Change (Vasopressin V1; VAS 0.01 i.u./kg, 180 min)	% Inhibition (Vasopressin V1; VAS 0.01 i.u./kg, 240 min) [%]	Average Change (Vasopressin V1; VAS 0.01 i.u./kg, 240 min)	% Inhibition (Vasopressin V1; VAS 0.01 i.u./kg, 300 min) [%]	Average Change (Vasopressin V1; VAS 0.01 i.u./kg, 300 min)	% Inhibition (Vasopressin V1; VAS 0.02 i.u./kg, 30 min) [%]	Average Change (Vasopressin V1; VAS 0.02 i.u./kg, 30 min)	% Inhibition (Vasopressin V1; VAS 0.02 i.u./kg, 60 min) [%]	Average Change (Vasopressin V1; VAS 0.02 i.u./kg, 60 min)	other results
0.22	0.028	Cc1ccccc1C(=O)Nc1ccc(C(=O)N2Cc3cccn3Cc3sccc32)cc1 [Example 267, N-[4-(5H-Pyrrolo[1,2-a]thieno[3,2-e][1,4]diazepin-4(10H)-ylcarbonyl)phenyl]-2-methylbenzamide]																			Max. % Inhibition (Vasopressin V1): 56%; Time (of max. % inhibition) (Vasopressin V1): 60 min
0.019	0.017	O=C(Cc1ccccc1F)Nc1ccc(C(=O)N2Cc3cccn3Cc3ccccc32)cc1 [Example 357, N-[4-(5H-Pyrrolo[2,1-c][1,4]benzodiazepin-10(11)ylcarbonyl)phenyl]-2-fluorobenzeneacetamide]	60	16.5	89	4.5	80	8	80	8	77	9.5	66	14	61	16	68	16	79	10.5	% Inhibition (Vasopressin V1; VAS 0.02 i.u./kg, 90 min): 79%; Average Change (Vasopressin V1; VAS 0.02 i.u./kg, 90 min): 10.5; % Inhibition (Vasopressin V1; VAS 0.02 i.u./kg, 120 min): 88%; Average Change (Vasopressin V1; VAS 0.02 i.u./kg, 120 min): 6; % Inhibition (Vasopressin V1; VAS 0.02 i.u./kg, 180 min): 78%; Average Change (Vasopressin V1; VAS 0.02 i.u./kg, 180 min): 11; % Inhibition (Vasopressin V1; VAS 0.02 i.u./kg, 240 min): 71%; Average Change (Vasopressin V1; VAS 0.02 i.u./kg, 240 min): 14.5; % Inhibition (Vasopressin V1; VAS 0.02 i.u./kg, 300 min): 68%; Average Change (Vasopressin V1; VAS 0.02 i.u./kg, 300 min): 16
0.037	0.017	Cc1ccccc1C(=O)Nc1ccc(C(=O)N2Cc3ccc(Cl)n3Cc3ccccc32)cc1 [Example 41, N-[4-(3-Chloro-5H-pyrrolo[2,1c][1,4]benzodiazepine10(11H)ylcarbonyl)phenyl]-2-methylbenzamide]	45	12	59	9	36	14	36	14	39	13.5	43	12.5	32	15	53	23.5	64	18	% Inhibition (Vasopressin V1; VAS 0.02 i.u./kg, 90 min): 55%; Average Change (Vasopressin V1; VAS 0.02 i.u./kg, 90 min): 22.5; % Inhibition (Vasopressin V1; VAS 0.02 i.u./kg, 120 min): 67%; Average Change (Vasopressin V1; VAS 0.02 i.u./kg, 120 min): 16.5; % Inhibition (Vasopressin V1; VAS 0.02 i.u./kg, 180 min): 58%; Average Change (Vasopressin V1; VAS 0.02 i.u./kg, 180 min): 21; % Inhibition (Vasopressin V1; VAS 0.02 i.u./kg, 240 min): 53%; Average Change (Vasopressin V1; VAS 0.02 i.u./kg, 240 min): 23.5; % Inhibition (Vasopressin V1; VAS 0.02 i.u./kg, 300 min): 47%; Average Change (Vasopressin V1; VAS 0.02 i.u./kg, 300 min): 27
0.023	0.008	COc1cc(Cl)ccc1C(=O)Nc1ccc(C(=O)N2Cc3cccn3Cc3ccccc32)cc1 [Example 89, N-[4-(5H-Pyrrolo[2,1-c][1,4]benzodiazepin-10(11H)ylcarbonyl)phenyl]-4-chloro-2-methoxybenzamide]	88	5	81	7.5	81	7.5	63	15	38	25	38	25	31	27.5	92	5	84	10	% Inhibition (Vasopressin V1; VAS 0.02 i.u./kg, 90 min): 80%; Average Change (Vasopressin V1; VAS 0.02 i.u./kg, 90 min): 12.5; % Inhibition (Vasopressin V1; VAS 0.02 i.u./kg, 120 min): 56%; Average Change (Vasopressin V1; VAS 0.02 i.u./kg, 120 min): 27.5; % Inhibition (Vasopressin V1; VAS 0.02 i.u./kg, 180 min): 48%; Average Change (Vasopressin V1; VAS 0.02 i.u./kg, 180 min): 32.5; % Inhibition (Vasopressin V1; VAS 0.02 i.u./kg, 240 min): 44%; Average Change (Vasopressin V1; VAS 0.02 i.u./kg, 240 min): 35; % Inhibition (Vasopressin V1; VAS 0.02 i.u./kg, 300 min): 48%; Average Change (Vasopressin V1; VAS 0.02 i.u./kg, 300 min): 32.5
